Measured values published in ChEMBL document CHEMBL1201862, “PubChem BioAssay data set” (2004).
Activity calls are given as the source filed them.

Legend:
[1] = molecular target: Rho-associated protein kinase 2 (Homo sapiens, UniProt O75116); type: functional
Beta-galactosidase = Beta-galactosidase (Escherichia coli, UniProt Q8VNN2); assay: beta-galactosidase enzyme inhibitors and activators, dose response, artefact control for CCR6 antagonist project, biochemical, E. coli enzyme, set 3 (AID 504712); type: functional
Sequence of Beta-galactosidase (Q8VNN2 whole entry): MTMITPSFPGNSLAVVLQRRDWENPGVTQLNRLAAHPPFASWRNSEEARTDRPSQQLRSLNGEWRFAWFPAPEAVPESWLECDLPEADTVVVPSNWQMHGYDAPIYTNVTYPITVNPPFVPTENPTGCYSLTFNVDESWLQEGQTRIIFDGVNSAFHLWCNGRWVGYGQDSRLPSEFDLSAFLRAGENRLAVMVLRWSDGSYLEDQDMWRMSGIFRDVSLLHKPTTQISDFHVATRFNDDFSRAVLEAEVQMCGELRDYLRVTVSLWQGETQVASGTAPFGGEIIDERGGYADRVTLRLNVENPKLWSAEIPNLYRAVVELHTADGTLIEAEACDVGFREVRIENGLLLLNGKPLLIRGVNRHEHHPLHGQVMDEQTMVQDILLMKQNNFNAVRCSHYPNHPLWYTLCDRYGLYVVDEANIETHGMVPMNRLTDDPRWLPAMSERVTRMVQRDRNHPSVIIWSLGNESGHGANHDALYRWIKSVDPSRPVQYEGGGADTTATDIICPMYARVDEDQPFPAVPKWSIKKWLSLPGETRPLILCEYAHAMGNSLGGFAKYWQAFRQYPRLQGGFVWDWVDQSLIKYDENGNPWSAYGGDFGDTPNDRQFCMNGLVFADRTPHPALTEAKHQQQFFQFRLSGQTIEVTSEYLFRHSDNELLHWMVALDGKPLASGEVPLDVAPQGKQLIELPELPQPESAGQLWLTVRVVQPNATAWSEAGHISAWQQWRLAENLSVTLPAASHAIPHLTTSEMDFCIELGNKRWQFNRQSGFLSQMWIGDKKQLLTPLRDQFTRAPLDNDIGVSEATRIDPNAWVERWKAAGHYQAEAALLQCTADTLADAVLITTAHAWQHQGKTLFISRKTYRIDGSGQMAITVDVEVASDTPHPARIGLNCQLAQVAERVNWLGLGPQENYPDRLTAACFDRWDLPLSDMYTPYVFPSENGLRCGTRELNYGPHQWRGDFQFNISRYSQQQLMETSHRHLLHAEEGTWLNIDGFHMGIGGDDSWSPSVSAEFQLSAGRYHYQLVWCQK

Hexokinase HKDC1 = molecular target: T1, Hexokinase HKDC1 (Homo sapiens, UniProt Q2TB90); assay: HKDC1 hexokinase inhibitors, dose response, biochemical, W721R variant (AID 504729); type: functional
T1 sequence (Q2TB90 whole entry): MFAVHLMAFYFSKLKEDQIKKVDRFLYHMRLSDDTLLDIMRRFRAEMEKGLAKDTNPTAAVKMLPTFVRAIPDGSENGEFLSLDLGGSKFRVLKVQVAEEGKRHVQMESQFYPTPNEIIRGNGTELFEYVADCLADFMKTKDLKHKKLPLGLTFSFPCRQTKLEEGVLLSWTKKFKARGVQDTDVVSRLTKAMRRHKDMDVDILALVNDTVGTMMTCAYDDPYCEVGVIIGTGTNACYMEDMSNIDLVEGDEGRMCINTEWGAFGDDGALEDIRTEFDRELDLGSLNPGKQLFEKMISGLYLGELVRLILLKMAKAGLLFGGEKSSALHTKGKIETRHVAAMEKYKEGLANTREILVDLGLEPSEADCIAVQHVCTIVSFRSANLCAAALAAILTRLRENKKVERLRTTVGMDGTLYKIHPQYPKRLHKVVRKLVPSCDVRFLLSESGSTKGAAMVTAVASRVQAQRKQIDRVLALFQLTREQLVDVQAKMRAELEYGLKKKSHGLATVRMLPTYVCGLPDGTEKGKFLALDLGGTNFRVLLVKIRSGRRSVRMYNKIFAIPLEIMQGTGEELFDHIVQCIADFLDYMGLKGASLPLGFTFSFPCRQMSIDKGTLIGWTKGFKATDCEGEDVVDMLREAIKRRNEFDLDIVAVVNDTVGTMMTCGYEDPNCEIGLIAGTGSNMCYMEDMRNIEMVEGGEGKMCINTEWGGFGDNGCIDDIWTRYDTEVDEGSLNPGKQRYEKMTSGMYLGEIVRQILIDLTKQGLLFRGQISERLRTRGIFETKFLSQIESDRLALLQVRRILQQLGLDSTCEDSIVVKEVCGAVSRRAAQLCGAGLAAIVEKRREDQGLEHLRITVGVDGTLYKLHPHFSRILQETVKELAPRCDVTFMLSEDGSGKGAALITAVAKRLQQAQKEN

[2] = system: Streptococcus sp. 'group A'; assay: growth inhibition of control SK(-) GAS strain, dose response, counter-screen for streptokinase expression inhibitor project, luminescence, kanamycin, BacTiterGlo, confirmation (AID 1900); type: functional, organism-based

Sequence of Rho-associated protein kinase 2 (O75116 whole entry): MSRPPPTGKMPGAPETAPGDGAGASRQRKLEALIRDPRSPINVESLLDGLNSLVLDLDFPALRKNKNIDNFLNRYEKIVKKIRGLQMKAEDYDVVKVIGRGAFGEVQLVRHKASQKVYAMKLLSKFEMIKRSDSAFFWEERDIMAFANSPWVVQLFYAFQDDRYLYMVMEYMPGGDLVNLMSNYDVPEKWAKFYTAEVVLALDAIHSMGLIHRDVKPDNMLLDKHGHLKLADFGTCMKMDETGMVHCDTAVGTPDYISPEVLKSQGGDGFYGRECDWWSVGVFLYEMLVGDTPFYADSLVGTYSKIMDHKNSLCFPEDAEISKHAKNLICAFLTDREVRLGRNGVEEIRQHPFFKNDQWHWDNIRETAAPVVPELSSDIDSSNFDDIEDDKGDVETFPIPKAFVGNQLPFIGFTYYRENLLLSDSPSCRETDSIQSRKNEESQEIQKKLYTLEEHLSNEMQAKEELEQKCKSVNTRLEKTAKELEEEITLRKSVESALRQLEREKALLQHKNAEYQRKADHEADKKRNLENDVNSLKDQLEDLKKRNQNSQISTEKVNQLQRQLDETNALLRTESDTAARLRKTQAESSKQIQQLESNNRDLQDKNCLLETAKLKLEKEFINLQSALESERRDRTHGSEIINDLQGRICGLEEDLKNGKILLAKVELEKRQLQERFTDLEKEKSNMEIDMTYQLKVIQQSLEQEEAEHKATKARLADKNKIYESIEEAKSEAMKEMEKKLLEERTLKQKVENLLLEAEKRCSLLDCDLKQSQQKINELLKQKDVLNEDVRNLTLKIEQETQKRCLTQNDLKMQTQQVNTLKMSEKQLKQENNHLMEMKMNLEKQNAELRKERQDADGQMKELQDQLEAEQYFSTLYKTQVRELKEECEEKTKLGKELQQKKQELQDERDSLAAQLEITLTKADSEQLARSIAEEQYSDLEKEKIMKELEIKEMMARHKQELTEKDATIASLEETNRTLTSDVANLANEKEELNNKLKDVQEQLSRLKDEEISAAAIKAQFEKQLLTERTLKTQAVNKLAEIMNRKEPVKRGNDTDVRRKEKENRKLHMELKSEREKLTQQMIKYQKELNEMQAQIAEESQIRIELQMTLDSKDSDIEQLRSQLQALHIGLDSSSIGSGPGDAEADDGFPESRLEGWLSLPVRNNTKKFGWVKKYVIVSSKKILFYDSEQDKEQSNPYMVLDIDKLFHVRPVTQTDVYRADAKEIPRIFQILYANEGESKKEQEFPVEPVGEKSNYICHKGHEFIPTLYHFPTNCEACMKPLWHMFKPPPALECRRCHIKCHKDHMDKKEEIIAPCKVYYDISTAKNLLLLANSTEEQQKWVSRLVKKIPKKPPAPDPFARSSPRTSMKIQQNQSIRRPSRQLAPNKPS

| Ki [1] | Compound | IC50 (Beta-galactosidase) | IC50 (Hexokinase HKDC1) | EC50 [2] |
| --- | --- | --- | --- | --- |
| 0.0126 µM (active) | CCC1CC(NS(=O)(=O)C2CC2)CC1c1ncc2cnc3[nH]ccc3n12 (centres undefined) | – | – | – |
| – | Cc1cc(C)c(S(=O)(=O)/N=C2\C=C(Nc3ccc(C(=O)O)cc3)C(=O)c3ccccc32)c(C)c1 | 36.1 µM (active) | 15.2 µM (active) | 0.561 µM (active) |
